The text below walks through data of PMC9652379, “Safety evaluations of a synthetic antimicrobial peptide administered intravenously in rats and dogs” (Scientific Reports, 2022).

Positions of bridges follow the written chain, without caps; N, C: chain ends. Non-standard residues stand in square brackets, D forms with d. Residues, ends and D or L forms follow the SMILES beside them. Chains are numbered I, II in the order given. βAla = NCCC(=O)O

The subject of one data set is beagle dogs. As to the kind of experiment: Dose range finding in dogs: clinical signs, body weight, survival. In kind it is in vivo, dog. Here is the method:
The purpose of this study was to conduct DRF for SET-M33 administered by short intravenous infusion (30 min) to beagle dogs at 4.0 and 8.0 mg/kg/day (7-day treatment period). Two animals served as control group (one male, one female), and four animals were assigned to treated groups (two males, two females). The doses were determined by a preliminary study not reported here.
Naïve beagle dogs were used for the toxicity studies. The animals were supplied by Marshall US. They were 9–10 months old at the start of treatment with a body-weight range of 9.1–10 kg for the DRF study. They were 6–7 months old at the start of treatment with a body-weight range of 6.6–8.6 kg for males and 5.1–6.5 kg for females for the 4-week toxicity study. The method of administration was an intravenous short infusion with an infusion pump, alternately either into the cephalic or saphenous veins using sterile disposable cannulas and syringes. The volume of the dose of SET-M33 and control in two studies was 2, 5 and 5 mL/Kg body weight, respectively.
Viability/mortality were recorded at least twice daily. […] Injection sites were examined daily during dosing. For clinical investigation, blood obtained via jugular venepuncture from anaesthetized dogs was used to analyse blood, coagulation and biochemical parameters.

Another data set can be described thus: in vivo. Particulars: dog. Here is the method:
Concentrations of SET-M33 in dog plasma samples and the main toxicokinetic parameters were determined. The exposure parameters (AUCt and Cmax) were compared to evaluate dose-dependency, accumulation ratio and sex-related differences. […] Mean SET-M33 plasma levels increased in parallel in males and females. Mean time to maximum SET-M33 concentration (tmax) was after the end of infusion for both periods (days 1 and 7) and sexes, i.e. 30 min post-dose, coherently with intravenous administration. On day 1 and 7, mean AUCt and Cmax values for the low vs. high dose were close to the theoretical ratio of 2.
Blood samples were taken by direct venepuncture of the jugular vein on days 1 and 7 to determine plasma levels of SET-M33. Sampling times were as follows: Day 1: at 0, 5, 15, 30, 60 and 180 min. Day 7: at 0, 5, 15, 30, 60, 180 min and 24 h after administration. Control animals were only bled once on days 1 and 7 of treatment, 1 h after administration. Blood samples were collected into lithium heparin test tubes and kept in an ice bath until centrifuging (1600 g for 10 min at 2–8 °C). The plasma obtained from each sample was transferred to a fresh polypropylenes test tubes, immediately frozen in dry ice and stored at − 20 °C ± 5.

As for `CC[C@H](C)[C@H](NC(=O)[C@H](CCCCN)NC(=O)[C@@H](N)CCCCN)C(=O)N[C@@H](CCCNC(=N)N)C(=O)N[C@H](C(=O)N[C@@H](CCCNC(=N)N)C(=O)N[C@@H](CC(C)C)C(=O)N[C@@H](CO)C(=O)N[C@@H](C)C(=O)NCCCC[C@H](NC(=O)[C@H](C)NC(=O)[C@H](CO)NC(=O)[C@H](CC(C)C)NC(=O)[C@H](CCCNC(=N)N)NC(=O)[C@@H](NC(=O)[C@H](CCCNC(=N)N)NC(=O)[C@@H](NC(=O)[C@H](CCCCN)NC(=O)[C@@H](N)CCCCN)[C@@H](C)CC)C(C)C)C(=O)NCCCC[C@H](NC(=O)[C@H](CCCCNC(=O)[C@H](C)NC(=O)[C@H](CO)NC(=O)[C@H](CC(C)C)NC(=O)[C@H](CCCNC(=N)N)NC(=O)[C@@H](NC(=O)[C@H](CCCNC(=N)N)NC(=O)[C@@H](NC(=O)[C@H](CCCCN)NC(=O)[C@@H](N)CCCCN)[C@@H](C)CC)C(C)C)NC(=O)[C@H](C)NC(=O)[C@H](CO)NC(=O)[C@H](CC(C)C)NC(=O)[C@H](CCCNC(=N)N)NC(=O)[C@@H](NC(=O)[C@H](CCCNC(=N)N)NC(=O)[C@@H](NC(=O)[C@H](CCCCN)NC(=O)[C@@H](N)CCCCN)[C@@H](C)CC)C(C)C)C(=O)NCCC(=O)O)C(C)C` [SET-M33] (I: H-KKIRVRLSAKK[βAla]-OH / II: H-KKIRVRLSAK / III: H-KKIRVRLSA / IV: H-KKIRVRLSA; amide I:10-IV:C, I:11-II:C, II:10-III:C (inferred); N-terminus and C-terminus assumed), the survival entry in the data set on beagle dogs (dogs, 4.0 and 8.0 mg/kg/day 30-min iv infusion, 7 days) is listed as “All animals survived the scheduled period”. Moreover, the “loss of body weight with respect to day 1” value in the data set with beagle dogs (one dog, 8 mg/kg/day 30-min iv infusion, end of 7-day treatment) is 9.4%. The molecule further had a tmax in the data set “in vivo” (both sexes, beagle, iv) of 30 min. For the same molecule, the “quantifiable plasma concentrations until, after the start of infusion” value in the data set “in vivo” (8 mg/kg/day) is “up to 24.5 h”.
